This is an account of results in US20240270762A1, “PENICILLIN-BINDING PROTEIN INHIBITORS” (priority 2021, published 2024).

Assay [1] has as its target T1, PBP3 from Acinetobacter baumannii (ATCC 19606) (Acinetobacter baumannii, UniProt A0ABX6CK25).
T1 sequence (A0ABX6CK25 64-610): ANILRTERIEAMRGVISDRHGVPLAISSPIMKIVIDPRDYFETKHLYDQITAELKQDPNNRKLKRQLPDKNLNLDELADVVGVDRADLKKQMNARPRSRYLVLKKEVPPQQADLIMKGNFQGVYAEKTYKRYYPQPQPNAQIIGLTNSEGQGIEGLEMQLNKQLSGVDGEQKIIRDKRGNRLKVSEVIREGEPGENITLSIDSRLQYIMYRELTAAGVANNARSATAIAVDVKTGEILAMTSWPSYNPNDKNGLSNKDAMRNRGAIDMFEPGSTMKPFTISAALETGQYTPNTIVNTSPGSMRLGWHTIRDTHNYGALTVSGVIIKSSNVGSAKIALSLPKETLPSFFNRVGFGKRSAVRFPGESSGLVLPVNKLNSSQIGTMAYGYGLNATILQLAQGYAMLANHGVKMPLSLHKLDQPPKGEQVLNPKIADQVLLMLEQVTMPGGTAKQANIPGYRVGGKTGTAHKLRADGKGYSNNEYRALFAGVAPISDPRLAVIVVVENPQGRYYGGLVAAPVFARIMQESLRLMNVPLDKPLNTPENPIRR
The experiment in a line: Bocillin-FL fluorescence polarization competition binding, A. baumannii PBP3. The following applies: fluorescence polarization competition binding assay using Bocillin-FL; read-out: A. baumannii PBP3 Potency. Put shortly:
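Purified PBPs pre-incubated with inhibitor (E. coli PBP3 1.5 μM, 30 min; P. aeruginosa PBP3 0.75 μM, A. baumannii PBP1a 1 μM and PBP3 0.2 μM, 15 min), then Bocillin-FL 0.1 μM (0.05 μM for PBP1a) added; FP read up to 60 min. EC50 = concentration halving bound Bocillin-FL.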

The test system of assay [2] is A. baumannii ATCC 17978. Nature of the assay: microbe, parasite or virus in culture. In kind it is cell-based. The following applies: Acinetobacter baumannii, ATCC17978, read-out: MIC, A. baumannii ATCC 17978.
The subject of assay [3] is P. aeruginosa CDC-0090. The experiment in a line: microbe, parasite or virus in culture. In kind it is cell-based. As to conditions: Pseudomonas aeruginosa, CDC0090, read-out: Minimum inhibitory concentration, P. aeruginosa CDC-0090.
Assay [4] relates to P. aeruginosa CDC-0095. Nature of the assay: microbe, parasite or virus in culture. The following applies: Pseudomonas aeruginosa, CDC0095, read-out: Minimum inhibitory concentration, P. aeruginosa CDC-0095. In kind it is cell-based.
Assay [5] deals with A. baumannii 1258916. The experiment in a line: microbe, parasite or virus in culture. In kind it is cell-based, Acinetobacter baumannii. As to conditions: Acinetobacter baumannii, 1258916, read-out: MIC, A. baumannii 1258916.
Assay [6] deals with A. baumannii CDC-0033. Nature of the assay: microbe, parasite or virus in culture. The assay is classed as cell-based. As to conditions: Acinetobacter baumannii, CDC0033, read-out: MIC, A. baumannii CDC-0033.
Assay [7] deals with A. baumannii CDC-0083. Nature of the assay: microbe, parasite or virus in culture. The assay is classed as cell-based. As to conditions: Acinetobacter baumannii, CDC0083, read-out: MIC, A. baumannii CDC-0083.
In assay [8] the test system is P. aeruginosa CDC-0110. The experiment in a line: microbe, parasite or virus in culture. In kind it is cell-based. As to conditions: Pseudomonas aeruginosa, CDC0110, read-out: Minimum inhibitory concentration, P. aeruginosa CDC-0110.
For assay [9], the system named is N. gonorrhoeae WHO M. Nature of the assay: Liquid broth MIC in Fastidious broth. As to conditions: Neisseria gonorrhoeae.
Description: Liquid broth-based assays were used for antibacterial testing of PBP inhibitors in Neisseria gonorrhoeae. Briefly, cryo-preserved bacterial cultures of clinical strains were streaked for isolation on Chocolate Agar (72 g/L (2×) GC Agar Base (BD #228950) and 2% (2×) Hemoglobin was autoclaved at 121° C. for 20 minutes to sterilize. Once cooled to ˜50° C. the 2×GC Agar Base and 2× Hemoglobin solutions are combined and 1% IsoVitaleX Enrichment (BD #211876) was added to the solution). Strains were incubated at 36° C. and 5% CO2 to allow growth of colonies, 24 hours before inoculum preparation. 2-fold serial dilutions of test compounds were conducted in a 96 well plate with a final volume of 75 μL per well at 2-fold the final desired concentration in Fastidious broth (Remel #R07664). For preparation of assay inoculum, a direct suspension was prepared by aseptically swabbing 10-15 colonies from agar plates into culture tubes containing 2 mL of fresh sterile saline. After the dilution plates were set up, direct suspensions were then diluted in a cuvette containing sterile saline and the optical density was measured at 600 nm. Inocula were diluted such that 75 μL of this culture in Fastidious broth results in a starting bacterial concentration of 5×10^5 CFU/mL when added to the dilution plates. The plates were incubated for ˜24 hours at 36° C. and 5% CO2.
The test system of assay [10] is N. gonorrhoeae WHO K. Nature of the assay: Liquid broth MIC in Fastidious broth. The following applies: Neisseria gonorrhoeae.
Assay [11] concerns N. gonorrhoeae WHO X. The experiment in a line: Liquid broth MIC in Fastidious broth. As to conditions: Neisseria gonorrhoeae.
The mark [12] stands for this setting: read-out: Minimum Inhibitory Concentration (MIC), N. gonorrhoeae WHO M.
Setting [13] is: read-out: Minimum Inhibitory Concentration (MIC), N. gonorrhoeae WHO K.
Setting [14] is: read-out: Minimum Inhibitory Concentration (MIC), N. gonorrhoeae WHO X.
Setting [15] is: read-out: Minimum Inhibitory Concentration, WHO M.
The mark [16] stands for this setting: read-out: Minimum Inhibitory Concentration, WHO K.
The mark [17] stands for this setting: read-out: Minimum Inhibitory Concentration, WHO X.

Values after ≈ are worked out from the molar mass of the structure shown. Where two headings read alike, the source gives them in different places.

With `O=C(NCCN1CCN(C(=O)NC(C(=O)N[C@H]2Cc3ccc(F)c(C(=O)O)c3OB2O)c2cc(F)c(O)c(O)c2Cl)C1=O)c1ccc(O)cc1` (stereo partly drawn) [Example 243, (3R)-3-(2-(2-chloro-5-fluoro-3,4-dihydroxyphenyl)-2-(3-(2-(4-hydroxybenzamido)ethyl)-2-oxoimidazolidine-1-carboxamido)acetamido)-7-fluoro-2-hydroxy-3,4-dihydro-2H-benzo[e][1,2]oxaborinine-8-carboxylic acid], the IC50 in assay [1] is less than 10 µM. In addition, the MIC in [2] was less than 1 µg/mL; in assay [3], less than 1 µg/mL; in [4], 8 to 16 µg/mL (≈ 11.1 to 22.3 µM); in assay [5] it was less than 1 µg/mL; in [6], 2 to 4 µg/mL (≈ 2.79 to 5.57 µM); in [7], less than 1 µg/mL. Also, the MIC in assay [8] was less than 1 µg/mL; in assay [9] (setting [12]) it was 4 to 8 µg/mL (≈ 5.57 to 11.1 µM); in assay [10] (setting [13]) it was greater than 64 µg/mL; in assay [11] (setting [14]), greater than 64 µg/mL.

Regarding `O=C(NCCN1CCN(C(=O)NC(C(=O)N[C@H]2Cc3ccc(F)c(C(=O)O)c3OB2O)c2cc(F)c(O)c(O)c2Cl)C1=O)c1cccc(O)c1` (stereo partly drawn) [Example 244, (3R)-3-(2-(2-chloro-5-fluoro-3,4-dihydroxyphenyl)-2-(3-(2-(3-hydroxybenzamido)ethyl)-2-oxoimidazolidine-1-carboxamido)acetamido)-7-fluoro-2-hydroxy-3,4-dihydro-2H-benzo[e][1,2]oxaborinine-8-carboxylic acid], the IC50 in assay [1] was less than 10 µM. The MIC in [2] was less than 1 µg/mL; in assay [3], less than 1 µg/mL; in assay [4], 32 to 64 µg/mL (≈ 44.6 to 89.2 µM); in assay [5], less than 1 µg/mL; in [6], 2 to 4 µg/mL (≈ 2.79 to 5.57 µM); in assay [7], less than 1 µg/mL. The MIC was 2 to 4 µg/mL (≈ 2.79 to 5.57 µM) in assay [8], 16 to 32 µg/mL (≈ 22.3 to 44.6 µM) in assay [9] (setting [12]), greater than 64 µg/mL in [10] (setting [13]) and greater than 64 µg/mL in [11] (setting [14]).

In the case of `O=C(NCCN1CCN(C(=O)NC(C(=O)N[C@H]2Cc3ccc(F)c(C(=O)O)c3OB2O)c2cc(F)c(O)c(O)c2Cl)C1=O)c1ccncc1` (stereo partly drawn) [Example 245, (3R)-3-(2-(2-chloro-5-fluoro-3,4-dihydroxyphenyl)-2-(3-(2-(isonicotinamido)ethyl)-2-oxoimidazolidine-1-carboxamido)acetamido)-7-fluoro-2-hydroxy-3,4-dihydro-2H-benzo[e][1,2]oxaborinine-8-carboxylic acid], in assay [1], the IC50 is less than 10 µM. Besides, the MIC in [2] was less than 1 µg/mL; in [3], less than 1 µg/mL; in assay [4], 2 to 4 µg/mL (≈ 2.85 to 5.69 µM); in assay [5], less than 1 µg/mL; in assay [6], 8 to 16 µg/mL (≈ 11.4 to 22.8 µM); in assay [7] it was less than 1 µg/mL. Besides, the MIC in assay [8] was less than 1 µg/mL; in assay [9] (setting [12]), 16 to 32 µg/mL (≈ 22.8 to 45.5 µM); in assay [10] (setting [13]), greater than 64 µg/mL; in [11] (setting [14]), greater than 64 µg/mL.

As for `O=C(NCCN1CCN(C(=O)NC(C(=O)N[C@H]2Cc3ccc(F)c(C(=O)O)c3OB2O)c2cc(F)c(O)c(O)c2Cl)C1=O)c1cccnc1` (stereo partly drawn) [Example 246, (3R)-3-(2-(2-chloro-5-fluoro-3,4-dihydroxyphenyl)-2-(3-(2-(nicotinamido)ethyl)-2-oxoimidazolidine-1-carboxamido)acetamido)-7-fluoro-2-hydroxy-3,4-dihydro-2H-benzo[e][1,2]oxaborinine-8-carboxylic acid], in assay [1], the IC50 is less than 10 µM. Moreover, the MIC in assay [2] is less than 1 µg/mL; in assay [3] it was 2 to 4 µg/mL (≈ 2.85 to 5.69 µM); in assay [4], 2 to 4 µg/mL (≈ 2.85 to 5.69 µM); in assay [5] it was less than 1 µg/mL; in assay [6], 2 to 4 µg/mL (≈ 2.85 to 5.69 µM); in assay [7], less than 1 µg/mL. Also, the MIC is less than 1 µg/mL in assay [8], 16 to 32 µg/mL (≈ 22.8 to 45.5 µM) in assay [9] (setting [15]), greater than 64 µg/mL in [10] (setting [16]) and greater than 64 µg/mL in [11] (setting [17]).

Consider `O=C(NCCN1CCN(C(=O)NC(C(=O)N[C@H]2Cc3ccc(F)c(C(=O)O)c3OB2O)c2cc(F)c(O)c(O)c2Cl)C1=O)c1nccs1` (stereo partly drawn) [Example 247, (3R)-3-(2-(2-chloro-5-fluoro-3,4-dihydroxyphenyl)-2-(2-oxo-3-(2-(thiazole-2-carboxamido)ethyl)imidazolidine-1-carboxamido)acetamido)-7-fluoro-2-hydroxy-3,4-dihydro-2H-benzo[e][1,2]oxaborinine-8-carboxylic acid], for which the IC50 in assay [1] is less than 10 µM. Further, the MIC was less than 1 µg/mL in [2]; 2 to 4 µg/mL (≈ 2.82 to 5.64 µM) in assay [3]; 2 to 4 µg/mL (≈ 2.82 to 5.64 µM) in [4]; less than 1 µg/mL in assay [5]; 2 to 4 µg/mL (≈ 2.82 to 5.64 µM) in assay [6]; less than 1 µg/mL in [7]. In addition, the MIC was less than 1 µg/mL in assay [8], 16 to 32 µg/mL (≈ 22.6 to 45.1 µM) in [9] (setting [15]), greater than 64 µg/mL in assay [10] (setting [16]) and greater than 64 µg/mL in assay [11] (setting [17]).

As to `O=C(O)c1c(F)ccc2c1OB(O)[C@@H](NC(=O)C(NC(=O)N1CCN(CCNC(=O)[C@@H]3CCCN3)C1=O)c1cc(F)c(O)c(O)c1Cl)C2` (stereo partly drawn) [Example 248, (3R)-3-(2-(2-chloro-5-fluoro-3,4-dihydroxyphenyl)-2-(2-oxo-3-(2-((S)-pyrrolidine-2-carboxamido)ethyl)imidazolidine-1-carboxamido)acetamido)-7-fluoro-2-hydroxy-3,4-dihydro-2H-benzo[e][1,2]oxaborinine-8-carboxylic acid], the IC50 in assay [1] is less than 10 µM. Also, the MIC in assay [2] was less than 1 µg/mL; in assay [3], 8 to 16 µg/mL (≈ 11.5 to 23 µM); in assay [4] it was 8 to 16 µg/mL (≈ 11.5 to 23 µM); in assay [5], less than 1 µg/mL; in [6], 2 to 4 µg/mL (≈ 2.88 to 5.76 µM); in assay [7] it was less than 1 µg/mL. The MIC in assay [8] is less than 1 µg/mL; in [9] (setting [15]), 4 to 8 µg/mL (≈ 5.76 to 11.5 µM); in [10] (setting [16]), 16 to 32 µg/mL (≈ 23 to 46.1 µM); in [11] (setting [17]), greater than 64 µg/mL.

On to `O=C(NCCN1CCN(C(=O)NC(C(=O)N[C@H]2Cc3ccc(F)c(C(=O)O)c3OB2O)c2cc(F)c(O)c(O)c2Cl)C1=O)Nc1cccc(O)c1` (stereo partly drawn) [Example 249, (3R)-3-(2-(2-chloro-5-fluoro-3,4-dihydroxyphenyl)-2-(3-(2-(3-(3-hydroxyphenyl)ureido)ethyl)-2-oxoimidazolidine-1-carboxamido)acetamido)-7-fluoro-2-hydroxy-3,4-dihydro-2H-benzo[e][1,2]oxaborinine-8-carboxylic acid], for which the IC50 in assay [1] is less than 10 µM. Further, the MIC was less than 1 µg/mL in assay [2]; less than 1 µg/mL in assay [3]; 32 to 64 µg/mL (≈ 43.7 to 87.3 µM) in [4]; less than 1 µg/mL in [5]; 2 to 4 µg/mL (≈ 2.73 to 5.46 µM) in [6]; less than 1 µg/mL in assay [7]. Besides, the MIC is less than 1 µg/mL in assay [8], 16 to 32 µg/mL (≈ 21.8 to 43.7 µM) in assay [9] (setting [15]), greater than 64 µg/mL in assay [10] (setting [16]) and greater than 64 µg/mL in assay [11] (setting [17]).

With `O=C(NCCN1CCN(C(=O)NC(C(=O)N[C@H]2Cc3ccc(F)c(C(=O)O)c3OB2O)c2cc(F)c(O)c(O)c2Cl)C1=O)Nc1ccncc1` (stereo partly drawn) [Example 250, (3R)-3-(2-(2-chloro-5-fluoro-3,4-dihydroxyphenyl)-2-(2-oxo-3-(2-(3-(pyridin-4-yl)ureido)ethyl)imidazolidine-1-carboxamido)acetamido)-7-fluoro-2-hydroxy-3,4-dihydro-2H-benzo[e][1,2]oxaborinine-8-carboxylic acid], in [1], the IC50 was less than 10 µM. Also, the MIC in assay [2] was less than 1 µg/mL; in assay [3] it was 2 to 4 µg/mL (≈ 2.79 to 5.57 µM); in [4], 32 to 64 µg/mL (≈ 44.6 to 89.2 µM); in assay [5], less than 1 µg/mL; in [6], 2 to 4 µg/mL (≈ 2.79 to 5.57 µM); in [7] it was less than 1 µg/mL. The MIC in assay [8] is 2 to 4 µg/mL (≈ 2.79 to 5.57 µM); in [9] (setting [15]), 16 to 32 µg/mL (≈ 22.3 to 44.6 µM); in [10] (setting [16]) it was greater than 64 µg/mL; in [11] (setting [17]), greater than 64 µg/mL.
